Measured values taken from US20190004043A1 (priority 2015, published 2019).
Entries after “also recorded” stand apart in the source; their conditions may differ. Like-named read-outs stand apart in the source and are kept apart here.

Tests used:
Assay type in all cases: binding
[1] = biological target: T1, Torpedo nicotinic Acetylcholine Receptor (Tetronarce californica, UniProt P02710+P02714+P02718); assay: Lateral flow test with two test lines: dose-response competition with biotinylated toxin tracer; settings: for coloration of the two test lines / inhibition of labelled ligand binding: toxin 0.01 to 1 μM
Description: The device used was a device manufactured according to above example 1, with the exception that two test lines were used instead of one test line and one control line. The control line is used to control if the strip test works properly. We controlled that all the lateral flow test devices were working well and we carried out several tests without toxins that we took as control (Ctrl) that the device was working as expected (FIG. 4).
In the present example several experiments were carried out using different toxins at different concentrations. Through the format two test lines, we tested the potency of the toxins at a given concentration.
In particular, different doses of the snake toxin a-bungarotoxin were tested between 0.01 to 10 μM (FIG. 4A). For that purpose, 1 mL of α-bungarotoxin at a concentration of 10 μM was prepared from the commercial a-bungarotoxin (Sigma; 250 μM) using TBS-BSA buffer (150 mM NaCl, 50 mM Tris-HCl, 0.5% BSA, pH 7.5). Successively, 1 mL of 1 μM α-bungarotoxin was prepared by diluting 10-times the previous concentrated solution using TBS-BSA buffer. Serial 10-times dilutions were performed as described to obtain the 0.1 and 0.01 μM α-bungarotoxin solutions using TBS-BSA buffer.
Different doses of the dinoflagellate toxin pinnatoxin-G ranging from 0.01 to 100 μM were also tested (FIG. 4B). For that purpose, 1 mL of pinnatoxin-G at a concentration of 100 μM was prepared from the synthetic pinnatoxin-G stock (A. Zakarian; 2 mM) using TBS-BSA buffer (150 mM NaCl, 50 mM Tris-HCl, 0.5% BSA, pH 7.5). Successively, 1 mL of 50 μM pinnatoxin-G was prepared by diluting 2-times the previous concentrated solution using TBS-BSA buffer. A solution of 1 μM pinnatoxin-G was obtained by diluting 50-times the previous 50 μM pinnatoxin-G solution using TBS-BSA buffer. Serial 10-times dilutions were performed as described to obtain the 0.1 and 0.01 μM pinnatoxin-G solutions using TBS-BSA buffer.
Finally, different doses of the dinoflagellate toxin 13,19-didesmethyl-spirolide C ranging from 0.01 to 10 μM were also tested. For that purpose, 1 mL of 13,19-didesmethyl-spirolide C at a concentration of 10 μM was prepared from the concentrated 13,19-didesmethyl-spirolide C stock (CIFGA; 100 μM) using TBS-BSA buffer (150 mM NaCl, 50 mM Tris-HCl, 0.5% BSA, pH 7.5). Successively, 1 mL of 1 μM 13,19-didesmethyl-spirolide C was prepared by diluting 10-times the previous concentrated solution using TBS-BSA buffer. Serial 10-times dilutions were performed as described to obtain the 0.1 and 0.01 μM 13,19-didesmethyl-spirolide C solutions using TBS-BSA buffer.
The competition experiments were carried out as disclosed in above example 2.

[2] = biological target: T1, Torpedo nicotinic Acetylcholine Receptor; assay: as above; settings: lower concentrations (0.001 to 1 μM)
[3] = biological target: T1, Torpedo nicotinic Acetylcholine Receptor

T1 sequence (P02718 22-522): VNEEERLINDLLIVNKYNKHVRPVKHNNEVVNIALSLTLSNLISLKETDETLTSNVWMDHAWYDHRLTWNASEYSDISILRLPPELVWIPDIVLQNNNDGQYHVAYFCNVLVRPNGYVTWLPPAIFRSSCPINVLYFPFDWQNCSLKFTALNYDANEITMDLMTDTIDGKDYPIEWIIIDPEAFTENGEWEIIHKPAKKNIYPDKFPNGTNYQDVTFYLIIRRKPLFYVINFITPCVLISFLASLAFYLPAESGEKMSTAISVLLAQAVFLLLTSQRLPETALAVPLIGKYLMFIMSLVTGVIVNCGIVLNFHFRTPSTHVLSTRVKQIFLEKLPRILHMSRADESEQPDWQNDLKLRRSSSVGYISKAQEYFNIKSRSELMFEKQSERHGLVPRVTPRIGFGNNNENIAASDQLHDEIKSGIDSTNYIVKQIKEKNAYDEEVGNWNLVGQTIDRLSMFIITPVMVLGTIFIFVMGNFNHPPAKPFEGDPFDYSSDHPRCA
T1 sequence (P02714 18-506): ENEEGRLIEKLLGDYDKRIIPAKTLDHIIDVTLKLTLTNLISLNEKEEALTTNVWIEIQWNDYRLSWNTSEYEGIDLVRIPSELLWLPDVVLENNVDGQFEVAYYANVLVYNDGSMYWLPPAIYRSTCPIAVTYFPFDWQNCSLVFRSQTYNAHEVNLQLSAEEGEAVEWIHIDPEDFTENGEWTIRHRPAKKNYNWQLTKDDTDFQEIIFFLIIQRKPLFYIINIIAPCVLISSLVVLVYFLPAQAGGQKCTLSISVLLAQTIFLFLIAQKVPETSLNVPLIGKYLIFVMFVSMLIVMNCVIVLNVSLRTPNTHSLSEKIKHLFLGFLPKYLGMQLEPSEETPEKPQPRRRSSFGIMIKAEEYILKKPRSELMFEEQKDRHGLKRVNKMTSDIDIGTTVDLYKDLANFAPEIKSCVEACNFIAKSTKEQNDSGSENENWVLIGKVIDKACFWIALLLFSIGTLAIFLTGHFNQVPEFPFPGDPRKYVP
T1 sequence (P02712 25-493, further chain): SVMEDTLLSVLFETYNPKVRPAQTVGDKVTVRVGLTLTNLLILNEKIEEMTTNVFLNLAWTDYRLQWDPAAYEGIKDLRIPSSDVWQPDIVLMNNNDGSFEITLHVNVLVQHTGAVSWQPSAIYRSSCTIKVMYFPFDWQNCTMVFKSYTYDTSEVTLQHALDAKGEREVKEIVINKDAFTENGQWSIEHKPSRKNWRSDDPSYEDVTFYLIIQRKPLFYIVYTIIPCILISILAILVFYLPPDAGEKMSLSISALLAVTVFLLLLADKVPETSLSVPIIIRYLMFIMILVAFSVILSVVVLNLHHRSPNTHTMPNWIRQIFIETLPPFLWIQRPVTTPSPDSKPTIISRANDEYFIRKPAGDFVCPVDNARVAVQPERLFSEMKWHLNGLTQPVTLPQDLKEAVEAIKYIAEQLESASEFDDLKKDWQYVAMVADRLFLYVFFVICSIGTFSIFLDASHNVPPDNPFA
T1 sequence (P02710 25-461): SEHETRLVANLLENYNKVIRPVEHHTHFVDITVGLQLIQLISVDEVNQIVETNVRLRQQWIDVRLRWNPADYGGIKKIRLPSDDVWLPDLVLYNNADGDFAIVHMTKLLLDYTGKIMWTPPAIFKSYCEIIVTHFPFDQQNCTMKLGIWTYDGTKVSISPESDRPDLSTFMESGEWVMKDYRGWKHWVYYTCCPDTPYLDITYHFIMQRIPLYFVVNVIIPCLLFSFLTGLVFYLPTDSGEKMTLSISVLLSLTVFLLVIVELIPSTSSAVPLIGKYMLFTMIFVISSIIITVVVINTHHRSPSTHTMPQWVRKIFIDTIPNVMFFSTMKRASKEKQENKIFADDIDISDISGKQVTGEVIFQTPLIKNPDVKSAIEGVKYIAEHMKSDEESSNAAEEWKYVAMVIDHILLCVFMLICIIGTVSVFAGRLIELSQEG

C=CC1=C[C@@H]2[C@@H]3O[C@]4(C[C@H]5CCC[C@@]6(CC[C@@]7(O[C@@H](CC[C@@]7(C)O)CC(=C)CCCC7=NC[C@H](C)[C@@H](C)C[C@@]72CC1)O6)O5)C[C@@H](C)[C@@H](O)[C@H]3O4 [pinnatoxin-G]
coloration of the two test lines versus control strip ([1]; toxin 50 μM): both test lines were colorless
inhibition of binding of the labelled ligand (test lines colorless) ([1]; toxin 50 μM): 100%
coloration of the two test lines versus control strip ([1]; toxin 100 μM): both test lines were colorless
inhibition of binding of the labelled ligand (test lines colorless) ([1]; toxin 100 μM): 100%
coloration of the two test lines / inhibition of labelled ligand binding [1]: only the second test line was colored with a lower intensity than was shown by the control strip
coloration of the two test lines versus control test [2]: only the upper test line was colored but to a less intensity than in the control test

C=C1CCCC2=NCC(C)C(C)CC23CCC(C2C=C(C)C(=O)O2)=C(C)C3/C=C(/C)C(O)CC2CCC3(CCC4(OC(CCC4(C)O)C1)O3)O2 (centres unmarked) [13-desmethyl-spirolide C]
coloration of test line versus control line / inhibition of tracer binding [3]: a colorless or a less-colored band in the test zone; also recorded: inhibits the binding of the tracer

C=C1CCCC2=NCC(C)C(C)CC23CCC(C2C=C(C)C(=O)O2)=C(C)C3/C=C(\C)C(O)CC2CCC3(CCC4(OC(CCC4O)C1)O3)O2 (centres unmarked) [13,19-didesmethyl-spirolide C]
inhibition of binding of the biotinylated toxin tracer ([1]; all concentrations, 0.01 to 10 μM): inhibited the binding of the biotinylated toxin tracer at all concentration
inhibition of binding of the labelled ligand (test lines colorless) ([1]; toxin 1 μM): 100%
inhibition of binding of the labelled ligand (test lines colorless) ([1]; toxin 10 μM): 100%
coloration of the two test lines / inhibition of labelled ligand binding [1]: strong inhibition

α-bungarotoxin
coloration of the two test lines / binding of labelled tracer [1]: inhibited the binding of the labelled tracer in both test lines
coloration of the two test lines versus control test [1]: both test lines are colored showing, however, a less intensity than in the control test
inhibition of binding of the labelled ligand (test lines colorless) [1]: 100%
